Measurements taken from patent US11939334B2, “Substituted pyrimido[4,5-b][1,4]diazepines as PLK1 degradation inducers” (UPPTHERA, INC., priority 2021, dated 2024).

Target: T1, PLK1 (Homo sapiens, UniProt P53350)
T1 construct: endogenous in cells; host or cells: HeLa cells stably expressing LgBit, with CRISPR/Cas9 knock-in of HiBit at the endogenous PLK1 locus
Assay: Luciferase assay for PLK1 in HeLa LgBit (Plk1-HiBit KI) cell line
Type: cell-based
Conditions: 300 nM compound, luminescence after 9 hours
Method: 2. Luciferase Assay for PLK1
(1) Preparation and Culture of HeLa LgBit (Plk1-HiBit KI) Cell Line
A HeLa cell line in which the LgBit vector was transfected and expressed stably was prepared. Then, after constructing gRNA and donor to express the HiBit amino acid sequence behind the C-terminal of the Plk1 gene, which was inherent in the cell, it was inserted into the cell together with a vector capable of expressing CRISPR/Cas9. Only the cells in which the insertion was completed and knock-in had progressed were selected, sub-cultured and used.
(2) Treatment of Compounds of the Present Invention and Method of Luciferase Assay
In the case of HeLa LgBit (Plk1-HiBit KI), the compounds were treated after being released after thymidine block, and the process was as follows. Thymidine (Sigma-Aldrich Cat. No. T9250-5G) was completely dissolved in DW and used in the experiment. For thymidine block, the products were treated with 2 mM of thymidine and then incubated for 24 hours. For release and chemical treatment, the medium was suctioned and washed with 1×PBS. TrypLE™ was added and incubated in 37° C. CO2 incubator for 5 min. Cells neutralized by adding complete media were counted through a counter. For each well of a 96-well culture plate (SPL), 3.3×10^4 cells and a total medium volume of 150 μL were seeded and incubated in a CO2 incubator.
Each cell line was incubated in a CO2 incubator for 18 hours, and Endurazine was added to each well to make up 4% of the total volume. After adding the compound of the present invention in a 96-well white plate (SPL) to a concentration of 300 nM, the wavelength of the plate reader (BMG Labtech, CLARIOstar Plus) was set to […], and then the luminescence was tracked in real time.
The results are shown in Table 2 below and FIGS. 1 and 2.
In Table 2, Activity represents the ratio of the luminescence value of each Exemplary Compound treatment group to DMSO treatment group (+++: <0.3, ++ <0.6, + <0.7).

T1 sequence (P53350 whole entry): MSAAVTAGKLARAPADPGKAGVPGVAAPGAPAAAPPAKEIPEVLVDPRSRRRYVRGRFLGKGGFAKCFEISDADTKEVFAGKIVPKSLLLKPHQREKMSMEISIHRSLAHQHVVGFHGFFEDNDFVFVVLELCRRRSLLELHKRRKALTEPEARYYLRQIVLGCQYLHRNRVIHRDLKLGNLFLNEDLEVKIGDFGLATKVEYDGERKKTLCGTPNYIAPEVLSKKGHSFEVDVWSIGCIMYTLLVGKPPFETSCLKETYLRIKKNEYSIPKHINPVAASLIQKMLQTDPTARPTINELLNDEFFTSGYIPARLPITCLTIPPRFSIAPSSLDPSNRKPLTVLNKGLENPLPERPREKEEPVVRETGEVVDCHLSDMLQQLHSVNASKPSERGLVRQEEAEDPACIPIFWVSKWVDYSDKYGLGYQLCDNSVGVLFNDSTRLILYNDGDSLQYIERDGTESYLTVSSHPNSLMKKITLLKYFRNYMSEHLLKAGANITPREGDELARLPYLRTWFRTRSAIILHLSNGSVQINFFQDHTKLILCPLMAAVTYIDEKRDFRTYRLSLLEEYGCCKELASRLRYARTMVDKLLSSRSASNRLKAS

Compound	Activity: ratio of the luminescence value of each Exemplary Compound treatment group to DMSO treatment group
COc1cc(C(=O)NC2CCC(N(C)CC3CCN(c4ccc(C5CCC(=O)NC5=O)cc4F)CC3)CC2)ccc1Nc1ncc2c(n1)N(C(C)C)CC(F)(F)C(=O)N2C (stereo not drawn) [Compound 8, 4-((7,7-difluoro-9-isopropyl-5-methyl-6-oxo-6,7,8,9-tetrahydro-5H-pyrimido[4,5-b][1,4]diazepin-2-yl)amino)-N-((1s,4s)-4-(((1-(4-(2,6-dioxopiperidin-3-yl)-2-fluorophenyl)piperidin-4-yl)methyl)(methyl)amino)cyclohexyl)-3-methoxybenzamide]	++ (++ <0.6)
COc1cc(C(=O)NC2CC3(CCN(CC4CCN(Cc5ccc(C6CCC(=O)NC6=O)cc5F)CC4)CC3)C2)ccc1Nc1ncc2c(n1)N(C(C)C)CC(F)(F)C(=O)N2C (stereo not drawn) [Compound 34, 4-((7,7-difluoro-9-isopropyl-5-methyl-6-oxo-6,7,8,9-tetrahydro-5H-pyrimido[4,5-b][1,4]diazepin-2-yl)amino)-N-(7-((1-(4-(2,6-dioxopiperidin-3-yl)-2-fluorobenzyl)piperidin-4-yl)methyl)-7-azaspiro[3.5]nonan-2-yl)-3-methoxybenzamide]	++ (++ <0.6)
COc1cc(C(=O)NC2CC3(CCN(CC4CCN(c5ccc(C6CCC(=O)NC6=O)c(OC)c5)CC4)CC3)C2)ccc1Nc1ncc2c(n1)N(C(C)C)CC(F)(F)C(=O)N2C (stereo not drawn) [Compound 37, 4-((7,7-difluoro-9-isopropyl-5-methyl-6-oxo-6,7,8,9-tetrahydro-5H-pyrimido[4,5-b][1,4]diazepin-2-yl)amino)-N-(7-((1-(4-(2,6-dioxopiperidin-3-yl)-3-methoxyphenyl)piperidin-4-yl)methyl)-7-azaspiro[3.5]nonan-2-yl)-3-methoxybenzamide]	++ (++ <0.6)
COc1cc(C(=O)NC2CCC(CCN3CCN(c4ccc(C5CCC(=O)NC5=O)cc4F)CC3)CC2)ccc1Nc1ncc2c(n1)N(C(C)C)CC(F)(F)C(=O)N2C (stereo not drawn) [Compound 41, 4-((7,7-difluoro-9-isopropyl-5-methyl-6-oxo-6,7,8,9-tetrahydro-5H-pyrimido[4,5-b][1,4]diazepin-2-yl)amino)-N-((1s,4s)-4-(2-(4-(4-(2,6-dioxopiperidin-3-yl)-2-fluorophenyl)piperazin-1-yl)ethyl)cyclohexyl)-3-methoxybenzamide]	++ (++ <0.6)
COc1cc(C(=O)NN2CCC(CN3CCN(C(=O)c4ccc(OC)c(N5CCC(=O)NC5=O)c4)CC3)CC2)ccc1Nc1ncc2c(n1)N(C(C)C)CC(F)(F)C(=O)N2C [Compound 51, 4-((7,7-difluoro-9-isopropyl-5-methyl-6-oxo-6,7,8,9-tetrahydro-5H-pyrimido[4,5-b][1,4]diazepin-2-yl)amino)-N-(4-((4-(3-(2,4-dioxotetrahydropyrimidin-1(2H)-yl)-4-methoxybenzoyl)piperazin-1-yl)methyl)piperidin-1-yl)-3-methoxybenzamide]	+ (+ <0.7)
COc1cc(C(=O)NC2CCN(C3CCN(c4ccc(C5CCC(=O)NC5=O)cc4F)C3)CC2)ccc1Nc1ncc2c(n1)N(C(C)C)CC(F)(F)C(=O)N2C (stereo not drawn) [Compound 59, 4-((7,7-difluoro-9-isopropyl-5-methyl-6-oxo-6,7,8,9-tetrahydro-5H-pyrimido[4,5-b][1,4]diazepin-2-yl)amino)-N-(1-(1-(4-(2,6-dioxopiperidin-3-yl)-2-fluorophenyl)pyrrolidin-3-yl)piperidin-4-yl)-3-methoxybenzamide]	++ (++ <0.6)
